Assay [1] relates to Candida albicans. As to the kind of experiment: growth inhibition of resistant C. albicans, dose response, CaCi-8 strain, fluconazole, dry powder, set 4 (AID 488950). The format is functional, organism-based.
The subject of assay [2] is Candida albicans. The experiment in a line: C. albicans growth inhibition with fluconazole, dose response, antifungal resistance reversal project, CaCi-2 strain, Alamar Blue, dry powder, set 2 (AID 488930). The format is functional, organism-based. In general terms: Alamar Blue is a resazurin reagent that responds to reducing activity.
Assay [3] deals with Candida albicans. The experiment in a line: fluconazole resistance reversal in C. albicans, dose response, CaCi-2 strain, Alamar Blue, dry powder, set 4 (AID 488943). Type of assay: functional, organism-based.
The subject of assay [4] is Candida albicans. As to the kind of experiment: growth inhibition of azole-resistant C. albicans, dose response, CaCi-8 strain, Alamar Blue, dry powder, set 2 (AID 488909). Type of assay: functional, organism-based.
The nature of assay [5]: inhibitors of firefly luciferase expression or activity, dose response, H4 neuroglioma cells, luminescence (AID 1990). The format is functional, cell-based.
Assay [6] is described as follows: Luminescence Cell-Based Dose Response HTS to Identify Inhibitors of 5'UTR Stem-Loop Driven Prion Protein mRNA Translation in H4 Neuroglioblastoma Cells. [Related pubchem assays: 1827 (Project Summary), 1813 (Primary HTS)]. The format is functional.
Assay [7] can be described thus: inhibitors of SNCA 5'UTR-driven reporter translation, confirmation, H4 neuroglioma cells, luminescence (AID 1988). Type of assay: functional, cell-based.
In the next assay the test system is HEK293. As to the kind of experiment: inhibitors of LMP1-driven NF-kB reporter, dose response, cell-based, HEK293, luciferase, cherry-pick (AID 588343). Type of assay: functional. As to conditions: Homo sapiens.
Assay [8] deals with T1, Apoptotic protease-activating factor 1 (Homo sapiens, UniProt O14727).
T1 sequence (O14727 whole entry): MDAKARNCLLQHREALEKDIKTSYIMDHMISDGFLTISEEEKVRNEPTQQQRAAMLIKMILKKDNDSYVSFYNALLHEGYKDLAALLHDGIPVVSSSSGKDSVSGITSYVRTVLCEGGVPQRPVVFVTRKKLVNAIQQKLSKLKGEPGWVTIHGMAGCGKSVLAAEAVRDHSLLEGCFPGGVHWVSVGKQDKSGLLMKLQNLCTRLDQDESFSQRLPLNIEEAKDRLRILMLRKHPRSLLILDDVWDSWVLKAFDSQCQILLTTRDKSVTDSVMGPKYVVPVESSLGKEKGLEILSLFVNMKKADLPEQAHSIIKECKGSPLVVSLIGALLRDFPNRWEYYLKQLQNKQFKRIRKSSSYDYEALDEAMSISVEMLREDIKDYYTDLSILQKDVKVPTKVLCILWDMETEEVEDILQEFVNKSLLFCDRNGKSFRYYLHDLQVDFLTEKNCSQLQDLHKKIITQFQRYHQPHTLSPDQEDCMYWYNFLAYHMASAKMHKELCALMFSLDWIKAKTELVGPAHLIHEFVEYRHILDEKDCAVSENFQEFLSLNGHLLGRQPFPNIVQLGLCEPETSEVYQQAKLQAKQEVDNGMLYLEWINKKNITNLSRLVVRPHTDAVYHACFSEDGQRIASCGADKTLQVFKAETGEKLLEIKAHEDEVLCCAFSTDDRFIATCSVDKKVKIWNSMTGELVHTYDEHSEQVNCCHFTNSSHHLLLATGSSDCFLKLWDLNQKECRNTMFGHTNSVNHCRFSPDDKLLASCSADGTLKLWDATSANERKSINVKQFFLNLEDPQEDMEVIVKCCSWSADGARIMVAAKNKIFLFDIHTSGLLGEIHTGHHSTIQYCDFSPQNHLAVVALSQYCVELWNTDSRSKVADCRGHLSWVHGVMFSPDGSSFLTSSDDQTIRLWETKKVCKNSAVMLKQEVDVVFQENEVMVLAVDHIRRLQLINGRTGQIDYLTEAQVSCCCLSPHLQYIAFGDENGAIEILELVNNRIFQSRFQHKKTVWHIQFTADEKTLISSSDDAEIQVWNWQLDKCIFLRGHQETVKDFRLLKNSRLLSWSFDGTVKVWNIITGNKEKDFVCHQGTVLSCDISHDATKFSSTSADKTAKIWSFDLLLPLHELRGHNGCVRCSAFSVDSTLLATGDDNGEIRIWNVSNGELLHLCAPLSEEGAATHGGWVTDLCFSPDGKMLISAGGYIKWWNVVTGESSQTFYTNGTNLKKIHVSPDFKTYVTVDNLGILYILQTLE
The format is functional.

The nature of assay [9]: Artemis endonuclease inhibitor potency, dose response, biochemical, fluorescence intensity (AID 720701).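 Also: Artemis endonuclease enzyme.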 Type of assay: functional.
The subject of assay [10] is INS1. As to the kind of experiment: caspase-3/7 inhibition in cytokine-treated INS-1E, dose response, beta-cell apoptosis inhibitor project, cell-based, caspase luminescence, dry powder (AID 488848). Type of assay: functional. The conditions noted are these: Rattus norvegicus.
Assay [11] addresses Short transient receptor potential channel 6 (Mus musculus, UniProt Q61143). The experiment in a line: TRPC6 inhibition potency of TRPC4 inhibitor analogs, dose response, selectivity assay for selective TRPC4 inhibitor project, HEK293 cells, membrane potential dye, IC50 (AID 492987). The format is functional, cell-based.
Assay [12] in a line: NIH-3T3 fibroblast cytotoxicity, dose response, cytotoxicity control, cell-based, fluorescence, Alamar Blue, secondary assay (AID 2327).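 Also: NIH-3T3 mouse fibroblasts cultured with fluconazole at 8 µg/mL.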 Type of assay: functional.
The nature of assay [13]: C. albicans growth with fluconazole, confirmation, fluorescence, retest (AID 2467). Type of assay: functional, cell-based.
Assay [14] can be described thus: inhibitors of intracellular T. cruzi replication, confirmation, NIH3T3 host cells, beta-gal luminescence (AID 2044).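 Also: intracellular parasites grown in NIH/3T3 mouse fibroblasts as host cells; luminescent beta-galactosidase reporter signal from transgenic T. cruzi replicating inside host cells; inhibitors lower the luminescence signal.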 The format is functional, cell-based.
Assay [15] addresses Serine/threonine-protein phosphatase (Candida dubliniensis (strain CD36 / CBS 7987 / NCPF 3949 / NRRLY-17841) (Yeast), UniProt B9W6M3). As to the kind of experiment: calcineurin pathway inhibitors in yeast reporter, dose response, S. cerevisiae, CDRE-lacZ, luminescence, secondary (AID 2388).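 Also: yeast reporter cells carrying a calcineurin-responsive lacZ construct stimulated with calcium chloride; luminescent beta-galactosidase reporter signal in whole cells rather than isolated phosphatase activity; potency for inhibition where a drop in reporter signal means calcineurin blockade.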 The format is functional, cell-based.
A short description of assay [16]: cytotoxicity toward NIH3T3 fibroblasts, dose response, counter-screen, cell-based, ATP luminescence, mouse fibroblasts (AID 2010).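 Also: cells exposed to compound for about 90 hours before reading.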 The format is functional. For orientation: Counterscreens check selectivity or assay interference.
In assay [17] the target is T2, Replicative DNA helicase DnaB (Mycobacterium tuberculosis, UniProt P9WMR3).
T2 sequence (P9WMR3 whole entry): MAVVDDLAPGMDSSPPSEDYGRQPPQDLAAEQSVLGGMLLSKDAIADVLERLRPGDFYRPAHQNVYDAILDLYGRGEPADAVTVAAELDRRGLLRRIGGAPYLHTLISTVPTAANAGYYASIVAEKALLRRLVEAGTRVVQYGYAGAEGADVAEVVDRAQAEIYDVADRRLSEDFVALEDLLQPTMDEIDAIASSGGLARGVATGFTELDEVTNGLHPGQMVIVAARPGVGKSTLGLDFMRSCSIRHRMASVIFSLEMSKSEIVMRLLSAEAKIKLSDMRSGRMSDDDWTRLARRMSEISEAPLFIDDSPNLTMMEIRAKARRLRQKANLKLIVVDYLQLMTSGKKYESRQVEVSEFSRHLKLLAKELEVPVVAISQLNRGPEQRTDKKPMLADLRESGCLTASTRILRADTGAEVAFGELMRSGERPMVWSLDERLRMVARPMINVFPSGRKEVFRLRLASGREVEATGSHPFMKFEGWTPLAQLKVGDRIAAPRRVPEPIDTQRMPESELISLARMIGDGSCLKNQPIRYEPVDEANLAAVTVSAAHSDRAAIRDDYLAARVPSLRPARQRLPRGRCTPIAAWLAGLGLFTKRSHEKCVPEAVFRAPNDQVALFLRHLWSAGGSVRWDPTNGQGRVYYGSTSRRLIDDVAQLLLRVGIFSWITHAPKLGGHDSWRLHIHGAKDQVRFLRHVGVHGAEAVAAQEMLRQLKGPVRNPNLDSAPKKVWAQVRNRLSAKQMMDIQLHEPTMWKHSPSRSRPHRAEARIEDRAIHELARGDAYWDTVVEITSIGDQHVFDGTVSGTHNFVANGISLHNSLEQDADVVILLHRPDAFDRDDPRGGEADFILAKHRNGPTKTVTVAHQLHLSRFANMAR
The experiment in a line: DnaB intein splicing inhibitors, dose response, biochemical, cell-free fluorescence (AID 449749). Type of assay: functional.

In another assay the target is T3, Protein RecA (Mycobacterium tuberculosis, UniProt P9WHJ3).
T3 sequence (P9WHJ3 whole entry): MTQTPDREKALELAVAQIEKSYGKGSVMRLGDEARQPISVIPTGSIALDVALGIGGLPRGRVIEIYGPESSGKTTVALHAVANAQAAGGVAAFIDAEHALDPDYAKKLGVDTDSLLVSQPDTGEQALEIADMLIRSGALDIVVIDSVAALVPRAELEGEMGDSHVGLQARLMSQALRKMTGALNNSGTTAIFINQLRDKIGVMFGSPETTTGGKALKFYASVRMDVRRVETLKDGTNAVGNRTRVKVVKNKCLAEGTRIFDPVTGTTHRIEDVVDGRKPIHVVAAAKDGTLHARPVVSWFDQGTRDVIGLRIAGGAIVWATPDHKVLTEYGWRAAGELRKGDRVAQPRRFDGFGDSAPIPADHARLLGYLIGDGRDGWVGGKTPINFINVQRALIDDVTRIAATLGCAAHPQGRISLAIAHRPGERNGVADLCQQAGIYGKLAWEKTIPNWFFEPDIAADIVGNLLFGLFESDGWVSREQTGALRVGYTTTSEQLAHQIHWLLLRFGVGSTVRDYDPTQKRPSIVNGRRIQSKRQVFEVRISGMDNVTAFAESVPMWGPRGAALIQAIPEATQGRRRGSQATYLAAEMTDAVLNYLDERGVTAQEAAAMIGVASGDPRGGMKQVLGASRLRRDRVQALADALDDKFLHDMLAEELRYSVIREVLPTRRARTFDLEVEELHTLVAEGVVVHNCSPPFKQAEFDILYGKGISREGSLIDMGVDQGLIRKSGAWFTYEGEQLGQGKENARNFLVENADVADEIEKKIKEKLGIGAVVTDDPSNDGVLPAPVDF
The experiment in a line: Fluorescence Cell-Free Homogeneous Dose Retest to Identify Inhibitors of RecA-Intein Splicing Activity. [Related pubchem assays (depositor defined):AID2097, AID2223, AID489010, AID492950]. The format is functional.

For assay [18], the system named is INS1. The experiment in a line: beta cell apoptosis inhibitors, cytokine rescue, dose response, luminescence, retest (AID 449756).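 Also: cell death triggered by IL-1 beta plus TNF-alpha plus IFN-gamma mixture; protective hits raise ATP signal compared with cytokine alone wells.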 The format is functional, cell-based. The conditions noted are these: Rattus norvegicus, INS1.
The target of assay [19] is ATP-dependent molecular chaperone HSP82 (Candida albicans (strain WO-1) (Yeast), UniProt C4YTQ8). As to the kind of experiment: loss of DOC-induced GRE-beta-galactosidase reporter signal, dose response, Hsp90 inhibitor project, S. cerevisiae, luminescence (AID 2400).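 Also: beta-galactosidase luminescence from glucocorticoid response element reporter as proxy for Hsp90 function; inhibitor potency where signal loss means Hsp90 inhibition.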 Type of assay: functional, cell-based.

The source made the active and inactive calls.

Chain of Short transient receptor potential channel 6 (Q61143 whole entry): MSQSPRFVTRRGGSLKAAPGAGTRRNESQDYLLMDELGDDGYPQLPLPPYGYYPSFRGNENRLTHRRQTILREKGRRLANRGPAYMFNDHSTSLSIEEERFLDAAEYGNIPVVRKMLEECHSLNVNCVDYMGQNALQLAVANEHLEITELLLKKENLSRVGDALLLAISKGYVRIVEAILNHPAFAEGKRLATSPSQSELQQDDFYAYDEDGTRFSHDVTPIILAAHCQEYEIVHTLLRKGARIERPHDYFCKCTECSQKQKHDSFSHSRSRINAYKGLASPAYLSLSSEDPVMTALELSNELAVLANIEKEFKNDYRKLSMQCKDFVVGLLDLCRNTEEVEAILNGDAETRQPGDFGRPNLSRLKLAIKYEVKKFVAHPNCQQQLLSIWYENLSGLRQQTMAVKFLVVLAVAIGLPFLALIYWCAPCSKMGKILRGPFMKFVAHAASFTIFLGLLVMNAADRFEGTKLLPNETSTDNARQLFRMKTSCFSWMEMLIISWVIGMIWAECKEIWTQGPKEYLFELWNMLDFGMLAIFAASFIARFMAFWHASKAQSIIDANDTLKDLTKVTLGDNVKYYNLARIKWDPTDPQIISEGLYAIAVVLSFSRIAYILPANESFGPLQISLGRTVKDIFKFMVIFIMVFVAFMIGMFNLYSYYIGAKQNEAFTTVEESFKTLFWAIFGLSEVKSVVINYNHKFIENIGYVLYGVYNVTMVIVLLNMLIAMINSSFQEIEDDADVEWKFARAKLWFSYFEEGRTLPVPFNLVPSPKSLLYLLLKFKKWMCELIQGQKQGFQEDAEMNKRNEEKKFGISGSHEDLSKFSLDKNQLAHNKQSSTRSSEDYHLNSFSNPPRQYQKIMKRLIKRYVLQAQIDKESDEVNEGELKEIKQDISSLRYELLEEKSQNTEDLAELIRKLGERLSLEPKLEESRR
Chain of ATP-dependent molecular chaperone HSP82 (C4YTQ8 whole entry): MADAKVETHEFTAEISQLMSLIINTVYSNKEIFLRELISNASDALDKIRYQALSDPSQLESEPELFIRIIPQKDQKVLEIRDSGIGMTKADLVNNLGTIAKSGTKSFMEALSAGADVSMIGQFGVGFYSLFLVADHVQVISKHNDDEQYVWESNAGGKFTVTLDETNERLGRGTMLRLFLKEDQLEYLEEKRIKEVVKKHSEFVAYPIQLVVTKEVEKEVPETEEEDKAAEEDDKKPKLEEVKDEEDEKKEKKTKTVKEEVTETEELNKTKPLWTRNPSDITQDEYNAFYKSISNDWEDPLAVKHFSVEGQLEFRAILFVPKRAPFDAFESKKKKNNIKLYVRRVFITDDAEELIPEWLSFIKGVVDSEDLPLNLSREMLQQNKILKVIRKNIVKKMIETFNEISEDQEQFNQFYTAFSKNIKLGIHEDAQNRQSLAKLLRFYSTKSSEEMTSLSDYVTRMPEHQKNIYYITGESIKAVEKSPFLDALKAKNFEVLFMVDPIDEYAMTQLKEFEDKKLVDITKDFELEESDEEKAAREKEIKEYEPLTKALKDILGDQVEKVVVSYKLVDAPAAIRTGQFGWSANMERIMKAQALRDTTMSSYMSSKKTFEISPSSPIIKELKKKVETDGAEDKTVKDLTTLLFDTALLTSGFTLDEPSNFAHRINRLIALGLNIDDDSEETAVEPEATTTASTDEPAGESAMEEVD
Chain of Serine/threonine-protein phosphatase (B9W6M3 whole entry): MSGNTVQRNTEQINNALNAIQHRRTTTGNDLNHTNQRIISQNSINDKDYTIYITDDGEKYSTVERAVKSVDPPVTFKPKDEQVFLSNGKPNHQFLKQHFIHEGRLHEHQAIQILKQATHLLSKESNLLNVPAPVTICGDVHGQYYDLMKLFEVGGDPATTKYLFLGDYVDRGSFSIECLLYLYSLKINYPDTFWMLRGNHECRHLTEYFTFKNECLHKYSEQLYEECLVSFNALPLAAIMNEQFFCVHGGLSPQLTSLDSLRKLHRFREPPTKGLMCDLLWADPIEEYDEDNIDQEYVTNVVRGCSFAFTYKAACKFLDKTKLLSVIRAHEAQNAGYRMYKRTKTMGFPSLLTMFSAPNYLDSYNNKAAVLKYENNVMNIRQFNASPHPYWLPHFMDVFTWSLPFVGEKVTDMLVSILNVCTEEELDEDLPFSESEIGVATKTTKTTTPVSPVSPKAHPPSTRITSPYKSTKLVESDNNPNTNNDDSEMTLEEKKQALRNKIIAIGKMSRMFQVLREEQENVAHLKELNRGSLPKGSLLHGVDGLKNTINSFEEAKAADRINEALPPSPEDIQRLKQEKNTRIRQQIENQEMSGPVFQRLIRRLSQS

`O=C(c1cccc(Cl)c1)N1CCN(c2ccnc3cc(Cl)ccc23)CC1`: the AC50 in the assay on Candida albicans [1] is 2.43 µM (active); with Candida albicans [2], 2.33 µM (active); in the assay on Candida albicans [3], 2.75 µM (active); in the assay with Candida albicans [4] it was 8.31 µM (active).

Take `Clc1ccc(-c2cn3nc4c(nc3n2)CCCC4)cc1`: the 50% effective concentration (EC50) in [5] was 3.45 µM (active); in assay [6], 5.88 µM (active); in [7] it was 1.51 µM (active). Also, the half-maximal activity concentration (AC50) with HEK293 was 1.45 µM (active). The values for the IC50 in assay [8] and in [9] were 17.5 µM (active) and > 20 µM (inactive), respectively.

For `COc1ccc(S(=O)(=O)N(C)C[C@@H]2Oc3c(NC(=O)Nc4cccc5c4ccn5C)cccc3C(=O)N([C@@H](C)CO)C[C@H]2C)cc1`, the AC50 with INS1 [10] is 17.5 µM (active).

For the compound `FC(F)(F)c1cc(N2CCCC2)nc2ccccc12`, the IC50 in [11] was 23.1 µM (active).

Turning to `COc1ccccc1NC1=C(N2CCCCC2)C(=O)c2ccccc2C1=O`, the EC50 is 41.7 µM (active) in assay [12]; 1.02 µM (active) in assay [13]; 0.56 µM (active) in assay [14]; > 180 µM (inactive) in assay [15]; > 30 µM (not active) in [16]; 1.51 µM (active) at Protein RecA. Further, the EC50 in assay [19] is > 160 µM (inactive). Further, the AC50 was 18.6 µM (active) in [17] and 0.916 µM (active) in the assay on INS1 [18]. Also, the IC50 in assay [8] is 3.32 µM (active).

As a reminder, the AC50 is the midpoint of the concentration-response curve, whichever way the signal moves. The term EC50 denotes the concentration giving half of the maximal effect. As a reminder, the IC50 is the concentration at which inhibition is half-maximal.
